What follows are compounds tested against T1, GCase (Homo sapiens, UniProt P04062) (assay: activation of GCase in a live cell PFB assay in HELA cells). Details: activation of GCase, EC50 ranges.
T1 construct: endogenous in cells; host or cells: HeLa cells
T1 sequence (P04062 40-536): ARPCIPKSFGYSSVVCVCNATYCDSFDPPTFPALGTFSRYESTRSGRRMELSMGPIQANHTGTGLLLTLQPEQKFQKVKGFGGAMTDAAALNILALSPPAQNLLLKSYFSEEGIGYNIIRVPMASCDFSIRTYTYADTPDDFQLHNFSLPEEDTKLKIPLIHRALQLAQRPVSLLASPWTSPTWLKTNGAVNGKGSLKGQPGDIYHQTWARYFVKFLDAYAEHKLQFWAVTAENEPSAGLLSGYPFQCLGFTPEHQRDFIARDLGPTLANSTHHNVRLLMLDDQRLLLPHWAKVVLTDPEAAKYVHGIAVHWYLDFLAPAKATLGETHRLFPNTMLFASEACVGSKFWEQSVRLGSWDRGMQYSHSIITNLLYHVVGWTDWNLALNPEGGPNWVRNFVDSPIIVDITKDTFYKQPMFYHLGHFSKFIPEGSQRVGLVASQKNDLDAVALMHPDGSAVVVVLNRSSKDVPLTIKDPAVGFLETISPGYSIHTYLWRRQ
Type: cell-based
Protocol: Exemplary compounds were evaluated for activation of GCase in a live cell PFB assay in HELA cells (essentially as described in Ysselstein et al., “LRRK2 kinase activity regulates lysosomal glucocerebrosidase in neurons derived from Parkinson's disease patients” Nature Communications (2019) 10:5570). […] EC50 ranges: A: <10 μM; B: >10-50 μM; C: >50-100 μM; D: >100 μM.

| Compound | EC50 [µM] |
| --- | --- |
| O=C1CC2(CCCN(c3cnc4cnn(CC(F)F)c4n3)C2)CN1c1cc(C(F)(F)F)ccn1 (centres unmarked) [Compound 97, 7-[1-(2,2-difluoroethyl)-1H-pyrazolo[3,4-b]pyrazin-6-yl]-2-[4-(trifluoromethyl)pyridin-2-yl]-2,7-diazaspiro[4.5]decan-3-one] | 50 to 100 |
| O=C1N(c2cc(C(F)(F)F)ccn2)CCC12CCCN(c1cnc3cnn(CC(F)F)c3n1)C2 (centres unmarked) [Compound 98, 7-[1-(2,2-difluoroethyl)-1H-pyrazolo[3,4-b]pyrazin-6-yl]-2-[4-(trifluoromethyl)pyridin-2-yl]-2,7-diazaspiro[4.5]decan-1-one] | 50 to 100 |
| O=C1N(c2cnc3cnn(CC(F)F)c3n2)CCC12CCN(c1cccc(C(F)(F)F)n1)CC2 [Compound 99, 2-[1-(2,2-difluoroethyl)-1H-pyrazolo[3,4-b]pyrazin-6-yl]-8-[6-(trifluoromethyl)pyridin-2-yl]-2,8-diazaspiro[4.5]decan-1-one] | < 10 |
| O=C1CC2(CCN(c3cccc(C(F)(F)F)n3)CC2)CN1c1cnc2cnn(CC(F)F)c2n1 [Compound 100, 2-[1-(2,2-difluoroethyl)-1H-pyrazolo[3,4-b]pyrazin-6-yl]-8-[6-(trifluoromethyl)pyridin-2-yl]-2,8-diazaspiro[4.5]decan-3-one] | 10 to 50 |
| O=C1CC2(CCN(c3cnc4cnn(CC(F)F)c4n3)CC2)CN1c1cccc(C(F)(F)F)n1 [Compound 101, 8-[1-(2,2-difluoroethyl)-1H-pyrazolo[3,4-b]pyrazin-6-yl]-2-[6-(trifluoromethyl)pyridin-2-yl]-2,8-diazaspiro[4.5]decan-3-one] | 10 to 50 |
| O=C1N(c2cccc(C(F)(F)F)n2)CCC12CCN(c1cnc3cnn(CC(F)F)c3n1)CC2 [Compound 102, 8-[1-(2,2-difluoroethyl)-1H-pyrazolo[3,4-b]pyrazin-6-yl]-2-[6-(trifluoromethyl)pyridin-2-yl]-2,8-diazaspiro[4.5]decan-1-one] | 10 to 50 |
| FC(F)(F)c1cc(N2CCCC3(C2)CN(c2cnc4cn(Cc5ccccc5)nc4n2)C3)ccn1 [Compound 103, 2-{2-benzyl-2H-pyrazolo[3,4-b]pyrazin-6-yl}-6-[2-(trifluoromethyl)pyridin-4-yl]-2,6-diazaspiro[3.5]nonane] | 10 to 50 |
| FC(F)(F)c1cc(N2CCCC3(C2)CN(c2cnc4cnn(Cc5ccccc5)c4n2)C3)ccn1 [Compound 104, 2-{1-benzyl-1H-pyrazolo[3,4-b]pyrazin-6-yl}-6-[2-(trifluoromethyl)pyridin-4-yl]-2,6-diazaspiro[3.5]nonane] | 10 to 50 |
| Cn1c(-c2ccccc2)c(C(=O)N2CCCC3(CC(Oc4cccnc4C(F)(F)F)C3)C2)c2nccnc21 (centres unmarked) [Compound 108, 6-{5-methyl-6-phenyl-5H-pyrrolo[2,3-b]pyrazine-7-carbonyl}-2-{[2-(trifluoromethyl)pyridin-3-yl]oxy}-6-azaspiro[3.5]nonane] | 10 to 50 |
| FC(F)Cn1ncc2ncc(NC3CCC4(CC3)CN(c3cccnc3C(F)(F)F)C4)nc21 [Compound 109, N-[1-(2,2-difluoroethyl)-1H-pyrazolo[3,4-b]pyrazin-6-yl]-2-[2-(trifluoromethyl)pyridin-3-yl]-2-azaspiro[3.5]nonan-7-amine] | 10 to 50 |
| O=C1CC2(CCN(c3ccc(C(F)(F)F)nc3)CC2)CN1c1cnc2cnn(CC(F)F)c2n1 [Compound 110, 2-[1-(2,2-difluoroethyl)-1H-pyrazolo[3,4-b]pyrazin-6-yl]-8-[6-(trifluoromethyl)pyridin-3-yl]-2,8-diazaspiro[4.5]decan-3-one] | 10 to 50 |
| O=C1CC2(CCN(c3cncc(C(F)(F)F)c3)CC2)CN1c1cnc2cnn(CC(F)F)c2n1 [Compound 111, 2-[1-(2,2-difluoroethyl)-1H-pyrazolo[3,4-b]pyrazin-6-yl]-8-[5-(trifluoromethyl)pyridin-3-yl]-2,8-diazaspiro[4.5]decan-3-one] | 10 to 50 |
| O=C1CC2(CCN(c3ccc(C(F)(F)F)cn3)CC2)CN1c1cnc2cnn(CC(F)F)c2n1 [Compound 112, 2-[1-(2,2-difluoroethyl)-1H-pyrazolo[3,4-b]pyrazin-6-yl]-8-[5-(trifluoromethyl)pyridin-2-yl]-2,8-diazaspiro[4.5]decan-3-one] | 10 to 50 |
| O=C1CC2(CCN(c3ncccc3C(F)(F)F)CC2)CN1c1cnc2cnn(CC(F)F)c2n1 [Compound 113, 2-[1-(2,2-difluoroethyl)-1H-pyrazolo[3,4-b]pyrazin-6-yl]-8-[3-(trifluoromethyl)pyridin-2-yl]-2,8-diazaspiro[4.5]decan-3-one] | > 100 |
| O=C1CCC2(CN(c3cnc4cnn(CC(F)F)c4n3)C2)CN1c1cccc(C(F)(F)F)n1 [Compound 114, 2-[1-(2,2-difluoroethyl)-1H-pyrazolo[3,4-b]pyrazin-6-yl]-6-[6-(trifluoromethyl)pyridin-2-yl]-2,6-diazaspiro[3.5]nonan-7-one] | 10 to 50 |
| O=C1N(c2cccc(C(F)(F)F)n2)CCCC12CN(c1cnc3cnn(CC(F)F)c3n1)C2 [Compound 115, 2-[1-(2,2-difluoroethyl)-1H-pyrazolo[3,4-b]pyrazin-6-yl]-6-[6-(trifluoromethyl)pyridin-2-yl]-2,6-diazaspiro[3.5]nonan-5-one] | 10 to 50 |
| COCCN1CCC2(CCN(c3cnc4cnn(CC(F)F)c4n3)CC2)C1=O [Compound 116, 8-[1-(2,2-difluoroethyl)-1H-pyrazolo[3,4-b]pyrazin-6-yl]-2-(2-methoxyethyl)-2,8-diazaspiro[4.5]decan-1-one] | 10 to 50 |
| FC(F)Cn1ncc2ncc(N3CC4(CCN(c5ccnc(C(F)(F)F)c5)CC4)C3)nc21 [Compound 117, 2-[1-(2,2-difluoroethyl)-1H-pyrazolo[3,4-b]pyrazin-6-yl]-7-[2-(trifluoromethyl)pyridin-4-yl]-2,7-diazaspiro[3.5]nonane] | < 10 |
| O=C1N(c2cnc3cnn(CC(F)F)c3n2)CCC12CCN(c1ccnc(C(F)(F)F)c1)CC2 [Compound 118, 2-[1-(2,2-difluoroethyl)-1H-pyrazolo[3,4-b]pyrazin-6-yl]-8-[2-(trifluoromethyl)pyridin-4-yl]-2,8-diazaspiro[4.5]decan-1-one] | 10 to 50 |
| O=C1N(c2cnc3cnn(CC(F)F)c3n2)CCC12CCN(c1ccc(C(F)(F)F)nc1)CC2 [Compound 119, 2-[1-(2,2-difluoroethyl)-1H-pyrazolo[3,4-b]pyrazin-6-yl]-8-[6-(trifluoromethyl)pyridin-3-yl]-2,8-diazaspiro[4.5]decan-1-one] | < 10 |
| O=C1N(c2cnc3cnn(CC(F)F)c3n2)CCC12CCN(c1ncccc1C(F)(F)F)CC2 [Compound 120, 2-[1-(2,2-difluoroethyl)-1H-pyrazolo[3,4-b]pyrazin-6-yl]-8-[3-(trifluoromethyl)pyridin-2-yl]-2,8-diazaspiro[4.5]decan-1-one] | < 10 |
| O=C1N(c2cnc3cnn(CC(F)F)c3n2)CCC12CCN(c1ccc(C(F)(F)F)cn1)CC2 [Compound 121, 2-[1-(2,2-difluoroethyl)-1H-pyrazolo[3,4-b]pyrazin-6-yl]-8-[5-(trifluoromethyl)pyridin-2-yl]-2,8-diazaspiro[4.5]decan-1-one] | < 10 |
| O=C1N(c2cnc3cnn(CC(F)F)c3n2)CCC12CCN(c1cncc(C(F)(F)F)c1)CC2 [Compound 122, 2-[1-(2,2-difluoroethyl)-1H-pyrazolo[3,4-b]pyrazin-6-yl]-8-[5-(trifluoromethyl)pyridin-3-yl]-2,8-diazaspiro[4.5]decan-1-one] | < 10 |
| FC(F)Cn1ncc2ncc(N3CC4(CCN(c5ncccc5C(F)(F)F)CC4)C3)nc21 [Compound 123, 2-[1-(2,2-difluoroethyl)-1H-pyrazolo[3,4-b]pyrazin-6-yl]-7-[3-(trifluoromethyl)pyridin-2-yl]-2,7-diazaspiro[3.5]nonane] | 10 to 50 |
| FC(F)Cn1ncc2ncc(N3CC4(CCN(c5ccc(C(F)(F)F)cn5)CC4)C3)nc21 [Compound 124, 2-[1-(2,2-difluoroethyl)-1H-pyrazolo[3,4-b]pyrazin-6-yl]-7-[5-(trifluoromethyl)pyridin-2-yl]-2,7-diazaspiro[3.5]nonane] | < 10 |
| FC(F)Cn1ncc2ncc(N3CC4(CCN(c5cccc(C(F)(F)F)n5)CC4)C3)nc21 [Compound 125, 2-[1-(2,2-difluoroethyl)-1H-pyrazolo[3,4-b]pyrazin-6-yl]-7-[6-(trifluoromethyl)pyridin-2-yl]-2,7-diazaspiro[3.5]nonane] | 10 to 50 |
| FC(F)Cn1ncc2ncc(N3CC4(CCN(c5cncc(C(F)(F)F)c5)CC4)C3)nc21 [Compound 126, 2-[1-(2,2-difluoroethyl)-1H-pyrazolo[3,4-b]pyrazin-6-yl]-7-[5-(trifluoromethyl)pyridin-3-yl]-2,7-diazaspiro[3.5]nonane] | < 10 |
| FC(F)Cn1ncc2ncc(N3CC4(CCN(c5ccc(C(F)(F)F)nc5)CC4)C3)nc21 [Compound 127, 2-[1-(2,2-difluoroethyl)-1H-pyrazolo[3,4-b]pyrazin-6-yl]-7-[6-(trifluoromethyl)pyridin-3-yl]-2,7-diazaspiro[3.5]nonane] | < 10 |
| FC(F)Cn1ncc2ncc(N3CC4(CCN(c5cnccc5C(F)(F)F)CC4)C3)nc21 [Compound 128, 2-[1-(2,2-difluoroethyl)-1H-pyrazolo[3,4-b]pyrazin-6-yl]-7-[4-(trifluoromethyl)pyridin-3-yl]-2,7-diazaspiro[3.5]nonane] | 10 to 50 |
